From patent publication EP0411494A2, “Ergoline derivatives having dopaminergic activity” (priority 1989, dated 1991)

Legend:
[1] = test system: guinea pig platelet; assay: In vitro guinea pig platelet aggregation induced by ADP; format: cell-based; details: guinea pig platelets
[2] = test system: mouse; assay: Locomotor activity in the mouse; format: in vivo
[3] = test system: isolated uterus of female rat; assay: Antiserotonin activity in vitro on isolated uterus of female rat; details: for ED₅₀: antiserotonin activity, isolated uterus of female rat
Excerpt: All the compounds of the invention have a marked antiserotonin activity in vitro test on isolated uterus of female rat.

[4] = test system: rat; assay: Stereotypy test in the rat; format: in vivo; details: dose 10 mg/kg i.p.
[5] = test system: reserpinized rat; assay: Antihyperprolactinemic activity in the reserpinized rat; format: in vivo; details: for Plasmatic prolactin % reduction: reserpinized rat
[6] = test system: Spontaneously hypertensive rats (SHR); assay: Antihypertensive activity on spontaneously hypertensive rats (SHR); format: in vivo, rat; details: for Mean arterial pressure % reduction: SHR
Excerpt: All the compounds of formula (I) have antihypertensive activity on Spontaneously hypertensive rats (SHR), as clearly shown by the results reported in the following Table III.

[7] = test system: rat seminal vesicle; assay: Adrenolytic activity in the rat seminal vesicle test in vitro
Excerpt: Most of the compounds of formula (I) have a marked adrenolytic activity in the rat seminal vesicle test in vitro.

[8] = After 1 hour, dose 0.25 mg/kg os
[9] = After 2 hours, dose 0.50 mg/kg os

α-Bromocryptine [reference compound]
Platelet aggregation % reduction ([1]; Dose 80 mcg/ml): 25% | % inhibition ([2]; dose 10 mg/kg i.p.): 78.7% | ED₅₀ [3]: 0.470 µg/mL | Mean score [4]: 2.25 | Plasmatic prolactin % reduction [5, 8]: 78.2% | Plasmatic prolactin % reduction [5, 9]: 80.9%

CN(C[C@@H]1C=C2c3cccc4[nH]cc(c34)C[C@H]2N(C)C1)C1CC1 [P 1427, N-methyl-N-cyclopropyl-9,10-didehydro-6-methylergoline-8β-methanamine]
Platelet aggregation % reduction ([1]; Dose 40 mcg/ml): 25% | % inhibition ([2]; dose 20 mg/kg i.p.): 92.7% | Mean arterial pressure % reduction ([6]; dose = 1 mg/kg i.p.): 35.6% | Mean arterial pressure % reduction ([6]; dose = 3 mg/kg i.p.): 32.4% | hypotensive / antihypertensive activity ([6]; result in words): high | ED₅₀ [7]: 0.70 µg/mL | ED₅₀ [3]: 0.004 µg/mL | antiserotonin activity ([3]; result in words): high | Plasmatic prolactin % reduction [5, 8]: 67.2% | Plasmatic prolactin % reduction [5, 9]: 86.6% | antihyperprolactinemic activity ([5]; result in words): interesting
